Results from US10800741B2 (ANCUREALL PHARMACEUTICAL (SHANGHAI) CO., LTD., priority 2017, dated 2020).

Tests used:
Kasumi-1 (KIT N822K) = assay: In vitro growth inhibition of Kasumi-1 tumor cells (MTT/CCK8); format: cell-based, Human; conditions: Homo sapiens, Kasumi 1; in vitro growth inhibition (or induction of apoptosis), cells cultured 3 to 5 days, MTT (CCK8); read-out: IC50 Kasumi-1 (KIT N822K)
H1703 (PDGFRa amp) = assay: In vitro growth inhibition of H1703 tumor cells (MTT/CCK8); format: cell-based, Human; conditions: Homo sapiens, NCI-H1703; in vitro growth inhibition (or induction of apoptosis), cells cultured 3 to 5 days, MTT (CCK8); read-out: IC50 H1703 (PDGFRa amp)
Karpas 299 (NPM-ALK) = assay: In vitro growth inhibition of Karpas 299 tumor cells (MTT/CCK8); format: cell-based, Human; conditions: Homo sapiens, KARPAS-299; in vitro growth inhibition (or induction of apoptosis), cells cultured 3 to 5 days, MTT (CCK8); read-out: IC50 Karpas 299 (NPM-ALK)
DMS114 = assay: In vitro growth inhibition of DMS114 cells; format: cell-based; conditions: Homo sapiens, DMS-114, FGFR1 amp
Procedure: (§1) Adherent cells were digested with 0.25% trypsin-EDTA (Gibco). Suspension culture cells were collected by centrifugation (1700 rpm, 3 minutes). The supernatant was discarded and the cells were counted. According to each cell growth cycle, different concentrations of cells were prepared (5˜10×10^4 cells per ml), and inoculated to 96-well plates (Corning), with 100 μl per well, and incubated overnight at 37° C., 5% CO2. The next day, the test compound was added to the cultured cells (2 wells in parallel). The final concentration of the solvent was less than 1/1,000. The cells were further cultured for 3 to 5 days and assayed by MTT.
(§2) The MTT test reagent was a Dojindo CCK8 kit and the Microplate Reader was a THERMO […] FC instrument.
(§3) The adherent cells were taken out from the cell culture medium, and immediately added to a freshly prepared complete medium containing 10% CCK8 (5% FBS), 100 ul per hole. The suspended cells were directly added to a CCK8 reagent until reaching a final concentration of 10% and cultured for 1 to 4 hours. When a dark yellow color could be observed in the solvent control wells, the absorbance value at OD450 nm was measured and the cell growth rate was calculated according to the following formula: Cell Growth Rate (%)=100×(T−T0)/(C−T0)
(§4) T=optical density of drug-treated cell wells−optical density of blank control wells; T0=optical density of cell wells before drug treatment−optical density of blank control wells; C=optical density of solvent control wells−optical density of blank control wells. […] The experiments were repeated 1 to 3 times and a statistical analysis of data was conducted.
(§5) Mutations in the FGFR1-4 gene often occur in different types of cancer patients. In order to test the growth inhibition activity of the present compound against tumor cells expressing different FGFR variants, tumor cell lines expressing representative FGFR1-4 were selected for further determining the activity of compounds 25, 66, 38 and 95 of the present invention. BGJ398, a selective inhibitor of FGFR1-4, was used as the control compound. The specific test method is the same as test example 1.

JIMT-1 = assay: In vitro growth inhibition of JIMT-1 cells; format: cell-based; conditions: Homo sapiens, FGFR1 amp, HER2 amp, PI3KCA C420R
Procedure: as §1, §2, §3, §4, §5

Huh-7 = assay: In vitro growth inhibition of Huh-7 cells; format: cell-based; conditions: Homo sapiens, FGFR3+++, FGFR4 +++
Procedure: as §1, §2, §3, §4, §5

A2780 = assay: In vitro growth inhibition of PI3KCA amplified/mutant tumor cells A2780; format: cell-based; conditions: Homo sapiens; A2780; PIK3CA E365K; read-out: IC50 growth inhibition
Procedure: as §1, with “Suspension” for “Adherent cells were digested with 0.25% trypsin-EDTA (Gibco). Suspension”
(§6) The adherent cells were taken out from the cell culture medium, and immediately added to a freshly prepared complete medium containing 10% CCK8 (5% FBS), 100 ul per hole. The suspended cells were directly added to a CCK8 reagent until reaching a final concentration of 10% and cultured for 1 to 4 hours.
as §4

AGS = assay: In vitro growth inhibition of PI3KCA amplified/mutant tumor cells AGS; format: cell-based; conditions: Homo sapiens, PI3KCA E453K/E545A, KRAS G12D, read-out: IC50 growth inhibition
Procedure: as §1, with “Suspension” for “Adherent cells were digested with 0.25% trypsin-EDTA (Gibco). Suspension”
as §6, §4

SW48 = assay: In vitro growth inhibition of PI3KCA amplified/mutant tumor cells SW48; format: cell-based; conditions: Homo sapiens; SW48; PI3KCA G914R; EGFR G719S; read-out: IC50 growth inhibition
Procedure: as §1, with “Suspension” for “Adherent cells were digested with 0.25% trypsin-EDTA (Gibco). Suspension”
as §6, §4

HCT116 = assay: In vitro growth inhibition of PI3KCA amplified/mutant tumor cells HCT116; format: cell-based; conditions: Homo sapiens; HCT-116; PI3KCAH1047R; KRAS G13D; read-out: IC50 growth inhibition
Procedure: as §1, with “Suspension” for “Adherent cells were digested with 0.25% trypsin-EDTA (Gibco). Suspension”
as §6, §4

HGC-27 = assay: In vitro growth inhibition of PI3KCA amplified/mutant tumor cells HGC-27; format: cell-based; conditions: Homo sapiens; HGC-27; PI3KCA H1047R; FGFR1OP2+++; read-out: IC50 growth inhibition
Procedure: as §1, with “Suspension” for “Adherent cells were digested with 0.25% trypsin-EDTA (Gibco). Suspension”
as §6, §4

HCC1954 = assay: In vitro growth inhibition of PI3KCA amplified/mutant tumor cells HCC1954; format: cell-based; conditions: Homo sapiens; HCC1954; PI3KCA H1047R; HER2 amp; read-out: IC50 growth inhibition
Procedure: as §1, with “Suspension” for “Adherent cells were digested with 0.25% trypsin-EDTA (Gibco). Suspension”
as §6, §4

## COc1cc2nccc(Oc3ccc(NC(=O)Nc4cc(C(C)(C)C)nn4C)c(Cl)c3Cl)c2cc1C(N)=O [Compound 38, 4-{4-[3-(5-tert-butyl-2-methyl-2H-pyrazol-3-yl)-ureido]-2,3-dichloro-phenoxy}-7-methoxyquinolin-6-carboxamide]
Kasumi-1 (KIT N822K)
  IC50: 1.32 nM
H1703 (PDGFRa amp)
  IC50: 1.81 nM
Karpas 299 (NPM-ALK)
  IC50: 11.7 nM
DMS114
  IC50: 4.1 nM
JIMT-1
  IC50: 19.1 nM
Huh-7
  IC50: 3.99 nM
A2780
  IC50: 9.1 nM
AGS
  IC50: 41.1 nM
SW48
  IC50: 13.6 nM
HCT116
  IC50: 11.9 nM
HGC-27
  IC50: 19.2 nM
HCC1954
  IC50: 11.8 nM

## COCCOc1cc2nccc(Oc3ccc(NC(=O)Nc4cc(C(C)(C)C)n[nH]4)c(Cl)c3)c2cc1NC(C)=O [Compound 66, N-[4-{4-[3-(5-tert-butyl-2H-pyrazol-3-yl)-ureido]-3-chloro-phenoxy}-7-(2-methoxy-ethoxy)-quinolin-6-yl]-acetamide]
Kasumi-1 (KIT N822K)
  IC50: 1.13 nM
H1703 (PDGFRa amp)
  IC50: 7.54 nM
Karpas 299 (NPM-ALK)
  IC50: 44.1 nM
DMS114
  IC50: 3.92 nM
JIMT-1
  IC50: 19.6 nM
Huh-7
  IC50: 1.98 nM
A2780
  IC50: 7.68 nM
AGS
  IC50: 43.5 nM
SW48
  IC50: 28.2 nM
HCT116
  IC50: 26.7 nM
HGC-27
  IC50: 39.9 nM
HCC1954
  IC50: 37.5 nM

## CN1CCN(CCCOc2cc3nccc(Oc4ccc(NC(=O)Nc5cc(C(C)(C)C)n[nH]5)c(Cl)c4Cl)c3cc2C(N)=O)CC1 [Compound 95]
Kasumi-1 (KIT N822K)
  IC50: 1.34 nM
H1703 (PDGFRa amp)
  IC50: 3.81 nM
Karpas 299 (NPM-ALK)
  IC50: 7.5 nM
DMS114
  IC50: 2.94 nM
JIMT-1
  IC50: 20.6 nM
Huh-7
  IC50: 7.89 nM
A2780
  IC50: 9.2 nM
AGS
  IC50: 39.9 nM
SW48
  IC50: 41.9 nM
HCT116
  IC50: 33.2 nM
HGC-27
  IC50: 30.9 nM
HCC1954
  IC50: 9.94 nM
